Measured values reported in patent US20040266732A1, “Therapeutic agents, methods, and treatments” (priority 2002, published 2004).

Legend:
Test in all cases: NCI 60 cell-line test
Assay type in all cases: cell-based, human
SW-620 = SW-620 (Colon Cancer)
Method in brief: (§1)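 SRB protein stain, A515, TCA-fixed; 48 h continuous drug exposure, ≥5 concentrations at 10-fold dilutions; RPMI 1640/5% FBS. GI50 = 50% reduction in net protein increase vs control; TGI at Ti=Tz; LC50 at 50% loss vs time zero.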

HCT-116 = HCT-116 (Colon Cancer)
Method in brief: as §1

SK-MEL-2 = SK-MEL-2 (Melanoma)
Method in brief: as §1

SF-539 = SF-539 (CNS Cancer)
Method in brief: as §1

UACC-62 = UACC-62 (Melanoma)
Method in brief: as §1

SF-295 = SF-295 (CNS Cancer)
Method in brief: as §1

LOX IMVI = LOX IMVI (Melanoma)
Method in brief: as §1

OVCAR-4 = OVCAR-4 (Ovarian Cancer)
Method in brief: as §1

TK-10 = TK-10 (Renal Cancer)
Method in brief: as §1

EKVX = EKVX (Non-Small Cell Lung Cancer)
Method in brief: as §1

CCRF-CEM = CCRF-CEM (Leukemia)
Method in brief: as §1

HL-60 (TB) = HL-60 (TB) (Leukemia)
HOP-62 = HOP-62 (Non-Small Cell Lung Cancer)
Method in brief: as §1

OVCAR-8 = OVCAR-8 (Ovarian Cancer)
Method in brief: as §1

[1] = read-out: LC50 (the source's name)

CC1(C)C2CC[C@@]1(CS(=O)(=O)N(C1CCCCC1)C1CCCCC1)C(O)C2 (stereo partly drawn) [MT103]
TGI (SW-620): >1.00E−04
IC50 (SW-620; read-out: G150): 28.8 µM
CC50 (SW-620; [1]): > 100 µM
TGI (HCT-116): >1.00E−04
IC50 (HCT-116; read-out: G150): 43.8 µM
CC50 (HCT-116; [1]): > 100 µM
TGI (SK-MEL-2): 6.77E−05
IC50 (SK-MEL-2; read-out: G150): 26 µM
CC50 (SK-MEL-2; [1]): > 100 µM
TGI (SF-539): >1.00E−04
IC50 (SF-539; read-out: G150): 54.6 µM
CC50 (SF-539; [1]): > 100 µM
TGI (UACC-62): 4.65E−05
IC50 (UACC-62; read-out: G150): 18.8 µM
CC50 (UACC-62; [1]): > 100 µM
TGI (SF-295): >1.00E−04
IC50 (SF-295; read-out: G150): 22.6 µM
CC50 (SF-295; [1]): > 100 µM
TGI (LOX IMVI): 3.95E−05
IC50 (LOX IMVI; read-out: G150): 19 µM
CC50 (LOX IMVI; [1]): 82.3 µM
TGI (OVCAR-4): >1.00E−04
IC50 (OVCAR-4; read-out: G150): 30.2 µM
CC50 (OVCAR-4; [1]): > 100 µM
TGI (TK-10): 9.02E−05
IC50 (TK-10; read-out: G150): 21.6 µM
CC50 (TK-10; [1]): > 100 µM
TGI (EKVX): 9.83E−05
IC50 (EKVX; read-out: G150): 31.3 µM
CC50 (EKVX; [1]): > 100 µM
TGI (CCRF-CEM): >1.00E−04
IC50 (CCRF-CEM; read-out: G150): 29.7 µM
CC50 (CCRF-CEM; [1]): > 100 µM
TGI (HL-60 (TB)): 8.33E−05
IC50 (HL-60 (TB); read-out: G150): 19 µM
CC50 (HL-60 (TB); [1]): > 100 µM
TGI (HOP-62): >1.00E−04
IC50 (HOP-62; read-out: G150): 57.5 µM
CC50 (HOP-62; [1]): > 100 µM
TGI (OVCAR-8): >1.00E−04
IC50 (OVCAR-8; read-out: G150): 25.3 µM
CC50 (OVCAR-8; [1]): > 100 µM
